Source: US20150272939A1, “Identification of Small Molecule Inhibitors of Jumonji AT-Rich Interactive Domain 1A (JARID1A) and 1B (JARID1B) Histone Demethylase” (Yale University, priority 2012, published 2015)
Values joined by “and” are separate entries in the source; they are usually repeats but may differ in a detail not shown here. Equal entries are not always repeated. Where two headings read alike, the source gives them in different places.

What was measured:
[1] = target: T1, JARID1B (Homo sapiens, UniProt Q9UGL1); test: FLAG-JARID1B histone demethylase assay with AlphaScreen detection (HTS and dose response); type: biochemical; conditions: for inhibition at 20 µM / Inhibitory effect (percent): high-throughput screen, compound 20 μM; for inhibition at 20 µM: read-out: Inhibitory effect (percent); for Validation result of HTS active: effect of the compound in the JARID1B AlphaScreen demethylase assay / Assay Signal (percent): validation of HTS actives; for Validation result of HTS active: effect of the compound in the JARID1B AlphaScreen demethylase assay: total signal before subtraction of artifact signal; for Assay − Artifact Signal (percent): assay signal minus artifact signal; for Assay Signal (percent): effect of compound in JARID1B AlphaScreen assay;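 on Assay Signal (percent): compound tested at 20 µM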;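 on Assay − Artifact Signal (percent): compound tested at 20 µM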;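 on all read-outs here: FLAG-tagged JARID1B at 4 nM acting on a biotinylated H3K4me3 peptide, demethylation read by AlphaScreen luminescence, with hits checked against bio-H3K4me2 without enzyme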
T1 construct: The FLAG tagged full length JARID1B enzyme was expressed in Sf21 insect cells using FLAG-JARID1B baculoviruses; FLAG (N); made in house; host or cells: Sf21 insect cells (baculovirus)

[2] = AlphaScreen counterscreen against bio-H3K4me2 peptide in the absence of enzyme (artifact signal); conditions: for Artifact signal: effect of the compound when it is incubated with bio-H3K4me2 peptide: counterscreen, no enzyme; for Artifact Signal (percent): effect of the compound when incubated with bio-H3K4me2 peptide (counterscreen, no enzyme);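 on all read-outs here: counterscreen run without enzyme against bio-H3K4me2 peptide to remove false positive hits from the JARID1 demethylase AlphaScreen screen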
[3] = standard demethylase conditions (10 μM α-KG, 50 μM Fe (II))
[4] = IDs marked *: additional hits under reaction condition with 1 mM α-KG

T1 sequence (Q9UGL1 whole entry): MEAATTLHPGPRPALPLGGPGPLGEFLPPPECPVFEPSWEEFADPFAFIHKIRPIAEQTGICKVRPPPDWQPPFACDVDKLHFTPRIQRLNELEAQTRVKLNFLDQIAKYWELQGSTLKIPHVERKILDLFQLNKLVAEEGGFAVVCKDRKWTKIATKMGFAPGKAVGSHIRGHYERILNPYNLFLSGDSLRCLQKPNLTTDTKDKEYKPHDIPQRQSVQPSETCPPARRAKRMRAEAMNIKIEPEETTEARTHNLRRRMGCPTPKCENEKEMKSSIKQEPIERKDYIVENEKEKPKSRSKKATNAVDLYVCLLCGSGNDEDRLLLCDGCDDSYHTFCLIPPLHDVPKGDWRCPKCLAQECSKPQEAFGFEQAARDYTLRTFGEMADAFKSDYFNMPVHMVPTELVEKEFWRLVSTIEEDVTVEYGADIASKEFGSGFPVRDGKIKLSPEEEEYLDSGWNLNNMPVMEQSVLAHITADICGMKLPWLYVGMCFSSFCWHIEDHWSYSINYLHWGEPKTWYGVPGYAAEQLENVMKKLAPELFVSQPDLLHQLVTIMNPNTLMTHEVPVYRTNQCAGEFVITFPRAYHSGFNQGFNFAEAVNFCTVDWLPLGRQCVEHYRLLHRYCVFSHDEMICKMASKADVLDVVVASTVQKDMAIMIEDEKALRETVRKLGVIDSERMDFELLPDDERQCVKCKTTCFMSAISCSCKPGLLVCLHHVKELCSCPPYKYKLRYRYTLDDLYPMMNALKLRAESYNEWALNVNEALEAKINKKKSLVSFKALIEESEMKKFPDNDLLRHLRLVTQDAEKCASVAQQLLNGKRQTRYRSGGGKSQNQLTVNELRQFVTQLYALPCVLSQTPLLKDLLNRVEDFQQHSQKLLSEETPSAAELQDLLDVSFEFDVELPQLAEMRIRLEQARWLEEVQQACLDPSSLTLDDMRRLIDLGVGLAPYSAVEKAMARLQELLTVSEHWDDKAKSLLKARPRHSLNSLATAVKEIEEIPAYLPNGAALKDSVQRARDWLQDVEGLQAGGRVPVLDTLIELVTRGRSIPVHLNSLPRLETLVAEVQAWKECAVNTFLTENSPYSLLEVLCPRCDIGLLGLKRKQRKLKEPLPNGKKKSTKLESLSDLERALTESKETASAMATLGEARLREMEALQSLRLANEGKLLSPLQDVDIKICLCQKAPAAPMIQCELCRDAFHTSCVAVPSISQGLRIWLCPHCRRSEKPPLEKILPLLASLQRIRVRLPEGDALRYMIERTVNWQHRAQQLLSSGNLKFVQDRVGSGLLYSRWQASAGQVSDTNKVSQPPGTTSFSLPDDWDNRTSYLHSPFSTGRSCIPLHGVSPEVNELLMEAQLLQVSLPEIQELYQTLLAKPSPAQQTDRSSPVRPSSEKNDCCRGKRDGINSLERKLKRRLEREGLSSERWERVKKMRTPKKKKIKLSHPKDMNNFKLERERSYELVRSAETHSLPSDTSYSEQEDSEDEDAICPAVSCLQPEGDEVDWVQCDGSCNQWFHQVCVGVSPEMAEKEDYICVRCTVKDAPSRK

inhibition at 20 µM [1, 3]	Validation result of HTS active: effect of the compound in the JARID1B AlphaScreen demethylase assay [1]	Artifact signal: effect of the compound when it is incubated with bio-H3K4me2 peptide [2]	Assay − Artifact Signal (percent) [1]	Assay Signal (percent) [1]	Artifact Signal (percent) [2]	inhibition at 20 µM [1, 4]	SMILES	Inhibitory effect (percent) [1, 3]
40.7%	5.76	5.46					CN(C)CCCn1cc(C2=C(c3c[nH]c4ccccc34)C(=O)NC2=O)c2ccccc21 [YU154851, GF 109203X, reference compound]	
44%	41.07	38.79					Cn1cc(C2=C(c3cn(CCCSC(=N)N)c4ccccc34)C(=O)NC2=O)c2ccccc21 [YU154853, Ro 31-8220, reference compound]	
46.4%			42.61%	46.26%	3.65%		O=C(O)c1cc(NCc2cc(O)ccc2O)ccc1O [YU154859, 2-HYDROXY-5-(2,5- DIHYDROXYBENZYL- AMINO)BENZOIC ACID, reference compound]	
103%			57.15%	99.57%	42.41%		COCc1cc(O)c(O)c(O)c1-c1c(COC)cc(O)c(O)c1O [YU154887, 2,2,3,3,4,4- HEXAHYDROXY-1,1- BIPHENYL-6,6- DIMETHANOL DIMETHYL ETHER, reference compound]	
70.3%			15.98%	15.51%	−0.48%		Oc1ccc2c(c1)OCC1(O)Cc3cc(O)c(O)cc3C21 (stereo not shown) [YU154998, BRAZILIN, reference compound]	
60.4%			13.49%	60.81%	47.32%		O=c1c(O)cc([C@H]2Oc3cc(O)cc(O)c3C[C@H]2O)cc2c([C@H]3Oc4cc(O)cc(O)c4C[C@H]3O)cc(O)c(O)c12 [YU155003, THEAFLAVIN, reference compound]	
			13.76%	28.09%	14.33%	42.3%	COc1ccc(-c2coc3cc(O)ccc3c2=O)c(O)c1O [YU155016, KOPARIN, reference compound]	
78.8%			9.26%	9.12%	−0.14%		O=C1C=C2C[C@@]3(O)COc4cc(O)ccc4C3=C2C=C1O [YU155025, BRAZILEIN, reference compound]	
75.9%			38.83%	49.97%	11.14%		C=C[C@@H](C1=CC(=O)C(OC)=C(OC)C1=O)c1ccccc1 [YU155075, 3,4-DIMETHOXY- DALBERGIONE, reference compound]	
97.5%	−1.37	−3.21					O=C(O)c1cc(O)c(=O)c2c(O)c(O)c(O)cc2c1 [YU155193, PURPUROGALLIN-4- CARBOXYLIC ACID, reference compound]	
45.8%			22.49%	91.26%	68.78%		O=c1c(O)c(-c2ccc(O)c(O)c2)oc2cc(O)ccc12 [YU155255, FISETIN, reference compound]	
105%	104.73	99.07					O=C1C=C2CC3(O)COc4c(ccc(O)c4O)C3=C2C=C1O (stereo not shown) [YU155257, HEMATEIN, reference compound]	
65.2%	0.59	1.01					O=c1cc(-c2ccccc2)oc2cc(O)c(O)c(O)c12 [YU155285, BAICALEIN, reference compound]	
72.1%	74.84	69.07					O=c1c(O)c(-c2cc(O)c(O)c(O)c2)oc2cc(O)cc(O)c12 [YU155300, MYRICETIN, reference compound]	
104%	103.69	95.69					O=C(O[C@@H]1Cc2c(O)cc(O)cc2O[C@@H]1c1cc(O)c(=O)c2c(O)c(O)cc([C@H]3Oc4cc(O)cc(O)c4C[C@H]3O)c2c1)c1cc(O)c(O)c(O)c1 [YU155347, THEAFLAVIN MONOGALLATES, reference compound]	
45.1%			45.03%	44.82%	−0.21%		C#CCCCCCCCCCCCC(O)CC(O)COC(C)=O (stereo not shown) [YU155369, AVOCADYNE ACETATE, reference compound]	
94.9%			31.75%	22.64%	−9.11%		O=c1c(-c2cc(O)c(O)c(O)c2)coc2cc(O)c(O)c(O)c12 [YU155411, IRIGENOL, reference compound]	
	13.64	6.39				42.5%	O=c1c(O)cccc2cc(O)c(O)c(O)c12 [YU155440, PURPUROGALLIN, reference compound]	
56.5%			48.87%	56.84%	7.97%		COc1cccc(O)c1O [YU155465, 3-METHOXYCATECHOL, reference compound]	
73.2%	−1.03	−5.30					COc1cc2cc3c4cc(OC)c(OC)cc4cc[n+]3c(C)c2cc1OC.[Cl-] [YU155528, CORALYNE CHLORIDE, reference compound]	
63.9%			51.44%	59.88%	8.44%		O=C(O)c1cc(O)c(O)c(O)c1 [YU155562, GALLIC ACID, reference compound]	
66%			57.78%	64.74%	6.96%		Oc1cc(O)c2c(c1)O[C@H](c1ccc(O)c(O)c1)[C@H](O)C2 [YU155618, EPICATECHIN, reference compound]	

SMILES	inhibition at 20 µM [1, 3]	Validation result of HTS active: effect of the compound in the JARID1B AlphaScreen demethylase assay [1]	Artifact signal: effect of the compound when it is incubated with bio-H3K4me2 peptide [2]	Assay − Artifact Signal (percent) [1]	Assay Signal (percent) [1]	Artifact Signal (percent) [2]	inhibition at 20 µM [1, 4]	Inhibitory effect (percent) [1, 3]
O=c1c(O)c(-c2ccc(O)c(O)c2)oc2cc(O)cc(O)c12 [YU154882, QUERCETIN, reference compound]	86%				100.88% and 78.65%	78.83% and 68.48%		93.51%
Oc1cc2c(cc1O)C1c3ccc(O)c(O)c3OCC1(O)C2 (stereo not shown) [YU155005, HAEMATOXYLIN, reference compound]	101%			64.59%	98.90%	34.32%		
Oc1cc(O)c2c(c1)O[C@H](c1cc(O)c(O)c(O)c1)[C@H](O)C2 [YU155087, EPIGALLOCATECHIN, reference compound]	55.5%			19.74%	44.50%	24.76%		
O=C(Oc1cc(O)cc2c1C[C@@H](OC(=O)c1cc(O)c(O)c(O)c1)[C@@H](c1cc(O)c(O)c(O)c1)O2)c1cc(O)c(O)c(O)c1 [YU155091, EPIGALLOCATECHIN 3,5-DIGALLATE, reference compound]	92.2%	−0.05	−3.13					
O=c1cc(-c2cc(O)c(O)c(O)c2)oc2cc(O)cc(O)c12 [YU155308, HIERACIN, reference compound]	40.7%	34.84	92.13					
CC(C)(C#N)O[C@@H]1O[C@H](CO)[C@@H](O)[C@H](O)[C@H]1O [YU155312, LINAMARIN, reference compound]	60.3%			99.23%	92.68%	−6.55%		
O=c1c(O)c(-c2ccc(O)c(O)c2)oc2c(O)c(O)cc(O)c12 [YU155360, GOSSYPETIN, reference compound]	103%			18.96%	100.77%	81.81%		
CC(C)=CCc1c2c(c3occ(-c4ccc(O)c(O)c4)c(=O)c3c1O)C=CC(C)(C)O2 [YU155407, POMIFERIN, reference compound]		16.14	10.52					91.09%
C[n+]1cc2c3c(ccc2c2ccc4cc5c(cc4c21)OCO5)OCO3.O=S(=O)([O-])O [YU155443, SANGUINARINE SULFATE, reference compound]				17.36%	5.51%	−11.85%		62.80%
COc1cccc2c1C(=O)c1c(O)c3c(c(O)c1C2=O)C[C@@](O)(C(C)=O)C[C@@H]3O[C@H]1C[C@H](N)[C@H](O)[C@H](C)O1 [YU155488, DAUNORUBICIN, reference compound]				45.32%	48.63%	3.31%		
